Reference: patent publication US20250361214A1, “TRIAZINE LIPIDS, LIPID SYNTHESIS, AND METHODS FOR INHIBITING CANONICAL NFKB TRANSCRIPTIONAL ACTIVITY” (University of Kentucky Research Foundation, priority 2022, published 2025)
“Also recorded” adds a separate entry of the source.

How the values were obtained:
[1] = Differential scanning calorimetry, transition temperature (Tm) of lipids; assay type: physicochemical; conditions: liposomes of pure lipid, 10 mM in 20 mM HEPES, DSC
Experimental: Differential Scanning calorimetery. The transition temperature (Tm) of the lipids was determined using a multicell differential scanning calorimeter (TA Instruments). Liposomes were made with triazine lipids at a concentration of 10 mM in 20 mM HEPES buffer. These were heated to 60° C. and sonicated until the solution was translucent. For Tm determination, 250 μL of the liposome solution was transferred into reusable hastelloy ampoules while 250 μL of the HEPES solution was transferred to the third ampoule, leaving the reference ampoule empty. […] Data was collected over a range of 10-110° C. at a rate of 2° C. min-1 in a heat-cool-heat cycle. After the run was complete, the CpCalc 2.1 software package was used to convert the raw data into a molar heat capacity and the data from the second heating cycle were processed using Microsoft Excel.

[2] = Size and charge determination of nanoparticles (Zetasizer Nano ZS), Example 1; assay type: physicochemical
From the text: Size and Charge Determination.

[3] = Nanoparticle pKa via TNS fluorescence; assay type: physicochemical; conditions: liposomes of the cationic lipid in buffer, probe 2-(p-toluidino)-6-napthalene sulfonic acid (TNS), 1 µM final, pH 2.5 to 12, read-out: pKa
Experimental: Determination of Nanoparticle pKa via TNS Fluorescence. […] The solutions were mixed by pipetting and incubated at room temperature for 10 minutes, before being analysed for fluorescence intensity using a 321 nm excitation and 445 nm emission wavelengths.

HeLa cells = assay: Transfection of luciferase plasmid; assay type: cell-based; conditions: TZ lipid:DOPE 1:1, compared with naked plasmid
Experimental: Transfection of Luciferase Plasmid and Cell Viability. HeLa cells cultured in EMEM (ATCC) supplemented with 10% fetal bovine serum were transferred to a 96 well plate, in quadruplicate, at a density of 20,000 cells per well and incubated for 24 hours at 37° C. in 5% CO2. Liposomes made with a 1:1 ratio of DOPE and TZ lipid were added to 200 ng pGL3 Luciferase Reporter Vector (Promega) at N:P ratios of 2.5, 5 and 10, and incubated at 37° C. for 10 minutes before being diluted in 100 μL of nonsupplemented EMEM and added to the cells. Following a four hour incubation at 37° C., the media was changed, and the cells were incubated for another twenty hours, at which point the cells were lysed with a cell culture lysis reagent at pH 7.8 composed of 25 mM Tris-phosphate buffer, 0.7 g L^−1 1,2-diaminocyclohexane, 10% glycerol, 1% Triton X-100, and 1% protease inhibitor cocktail (Millipore). Total protein content was determined with a bicinchoninic acid assay (G-Biosciences) and luciferase protein expression was quantified by a luciferase assay (Promega). Cell viability was assessed using a Cell Titer Blue assay kit (Promega) based on the manufacturer's instructions. In each of the three independent experiments performed, transfection was compared with cells treated with Lipofectamine 3000 (Thermo), following the manufacturer's instructions, and with DNA treated cells.

[4] = Characterization of nanoparticles (size, zeta potential, DNA encapsulation), Example 2; assay type: physicochemical; conditions: LNPs made with the cationic lipid
Experimental: The concentration of DNA in LNPs after dialysis was quantified using an AccuClear® Ultra High Sensitivity dsDNA Quantification Kit (Biotium #31027) and quantified on a BioTek Synergy H1 plate reader. Encapsulation efficiencies were determined by comparing the amount of DNA in the LNP solution vs. the DNA solution used to make them, after disrupting the LNPs with 0.5% Cl2E10 (Abcam #ab146563) and adjusting for volume differences (i.e.: excess volume added during dialysis and dilution volume during ethanol mixture).

BALB/c mice [5] = assay: In vivo hAAT transfection efficiency, serum ELISA and ALT; design: species or system mouse
Experimental: To assess in vivo hAAT transfection efficiency, mice were administered 200 μL nanoparticles or PBS vehicle i.p. at the doses indicated in the figure legend. Seventy-two hours after injection the mice were bled again for assessment of ALT levels and hAAT expression. hAAT levels were determined via ELISA using serum diluted 1:1 in PBS containing 0.05% casein (PBS-C; 124250; Beantown Chemical), as described previously.^38

BALB/c mice [6] = assay: Anti-hAAT antibody titers and IgG subclass ratios; assay type: in vivo, mouse
Experimental: To assess the presence of antibodies toward hAAT, 50 μL of hAAT (OriGene #RG202082) was plated at 2 μg/mL in carbonate buffer, pH 9.7, on a 96 well high binding plate (Greiner #82050-720) and incubated overnight at 4° C. The next day, the plates were washed with PBS containing 0.1% Tween-20 (PBS-T) and blocked for 1 hour with PBS-C at 37° C. After blocking, serum samples were plated at dilutions ranging from 1:100 to 1:1,000,000 and incubated at 37° C. for 2 hours. Secondary antibody (goat anti-mouse IgG HRP; Invitrogen #16066) diluted 1:2000 was applied for 30 min at 37° C., followed by a 30 min. incubation with tetramethylbenzidine (Rockland). Absorbance at 450 nm was recorded using a BioTek Synergy H1 microplate reader. Reciprocal endpoint titers were determined by plotting A450 values versus known dilutions, calculating the slope of that line, and dividing the slope by two times the average of the blank (no serum) wells.
Anti-hAAT IgG subclass ratios were assessed as described above, using a single 1:100 sample dilution and the following detection antibodies: goat anti-mouse IgG1-HRP (Abcam ab98693) at 1:10,000, IgG2a-HRP (Abcam ab98698) at 1:5000, IgG2b-HRP (Abcam ab98703) at 1:10,000 and IgG3 (Jackson 115-035-209) at 1:5000. Subclass ratios were calculated by dividing the absorbance of each subclass by that of IgG1 for each individual mouse.

canonical NFKB = assay: THP-1-Blue NFKB reporter (SEAP) assay; assay type: cell-based, human
J774 murine macrophages = assay: CD80 expression on macrophages treated with lipid; assay type: cell-based; conditions: 16 hours
From the text: Increased expression of CD80 after TZ3 treatment aligns with data observed for DOTAP,^109 and supports the hypothesis that cationic lipids activate the non-canonical NFKB pathway leading to enhanced antigen presentation and co-stimulatory molecule expression.

**Q.** With `CCCCCCCCCCCCN(CCCCCCCCCCCC)c1nc(NCCCN)nc(NCCCN)n1` [Lipid 3] as the compound, how does the Tm [1] read?
**A.** < 10 °C

**Q.** And the PDI ([2]; nanoparticles of pure lipid (Table 1))?
**A.** 0.41 ± 0.02

**Q.** What about the Size ([2]; nanoparticles of pure lipid, 1 mM, 25° C. (Table 1)) of the same compound?
**A.** 130 ± 2 nm

**Q.** And the Charge ([2]; zeta potential, nanoparticles of pure lipid (Table 1))?
**A.** 52 ± 3 mV

**Q.** And the pKa [3]?
**A.** 7.37

**Q.** What about the “plasmid transfection (luciferase)” value (HeLa cells) of the same compound?
**A.** better efficacy than the lipids with C18 tails

**Q.** And the “encapsulation of DNA (general)” value [4]?
**A.** 60-70%

**Q.** What about the “hAAT levels at 4 weeks” value (BALB/c mice [5]; LP transfection, 4 weeks after treatment) of the same compound?
**A.** persisted at 4 weeks after treatment

**Q.** What about the “average hAAT levels in serum” value (BALB/c mice [5]; LPs (50% cationic lipid, 50% DOPE), 10,000 ng hAAT plasmid DNA i.p., 72 hours) of the same compound?
**A.** 9.5 ng/mL

**Q.** What about the “increase in anti-hAAT titers versus the two control lipids” value (BALB/c mice [6]; 25 μg hAAT protein concurrent with 1 mM lipid, day 14) of the same compound?
**A.** 1000 fold

**Q.** What about the “increase in antibody titer toward a model antigen” value (BALB/c mice [6]; absence of additional adjuvants (FIG. 60)) of the same compound?
**A.** greater than 3 orders of magnitude

**Q.** What about the “ratios of IgG2a, 2b and 3 to IgG1” value (BALB/c mice [6]; hAAT protein delivered with lipids) of the same compound?
**A.** more balanced IgG2a/IgG1 ratio than DOTAP and DMPC

**Q.** What about the “antibody response relative to DOTAP” value (BALB/c mice [6]; hAAT protein delivery) of the same compound?
**A.** two orders of magnitude greater than DOTAP

**Q.** And the “RET (anti-hAAT)” value (BALB/c mice [6]; lipid used to deliver the hAAT protein)?
**A.** > 100,000

**Q.** And the “anti-hAAT IgG titers” value (BALB/c mice [6]; transgene delivery, 10 μg hAAT DNA, day 14, versus untreated mice)?
**A.** significantly higher anti-hAAT titers than untreated mice

**Q.** What about the “Th1/Th2 response (ratios of IgG2a, 2b, and 3 over IgG1)” value (BALB/c mice [6]; transgenic hAAT delivery with LPs) of the same compound?
**A.** balanced Th1/Th2 response

**Q.** What about the IC50 (canonical NFKB; Homo sapiens, THP-1-Blue cells stimulated with TNFα, 24 h lipid treatment, read-out: IC50, canonical NFKB inhibition) of the same compound?
**A.** 4 µM

**Q.** And the IC80 (canonical NFKB; Homo sapiens, canonical NFKB inhibition)?
**A.** 10 µM

**Q.** What about the “canonical NFKB inhibition” value (canonical NFKB; THP-1-Blue cells stimulated with TNFα, listed as TZ3) of the same compound?
**A.** dose dependent, but not affected by duration of exposure; also recorded: dose dependent inhibition of the canonical NFKB pathway

**Q.** What about the CD80 expression (J774 murine macrophages; MFI relative to untreated cells, listed as TZ3) of the same compound?
**A.** does-dependent increase in mean fluorescence intensity (MFI) of CD80; also recorded: dose-dependent increase in expression of the co-stimulatory molecule, CD80

**Q.** And the “cell viability (ZombieDye live/dead stain)” value (J774 murine macrophages; across lipid concentrations)?
**A.** cells are viable across lipid concentrations
